Measured values as given in patent US20150105252A1, “SUBSTITUTED PYRAZOLES AS HERBICIDES” (E I DU PONT DE NEMOURS AND COMPANY, priority 2013, published 2015).

Experiments:
soybean = experiment: Test C postemergence; type: in vivo, Glycine max; settings: postemergence; for Plant response rating, Soybean: 250 g ai/ha, scale 0 to 100 (0 no effect, 100 complete control); for Soybean plant response rating: 125 g ai/ha, scale 0 to 100, 0 no effect, 100 complete control
Method in brief: (§1)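 Herbicidal effect is expressed as percent visual control (0–100) judged against untreated plants 13 to 15 days after treatment in the greenhouse. Preemergence pots contained seeds in a soil–sand blend; postemergence plants, 2–18 cm tall, grew in peat-based planting medium.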

pigweed [1] = experiment: Test C postemergence; type: in vivo, Amaranthus retroflexus; settings: postemergence; for Pigweed plant response rating: 62 g ai/ha, scale 0 to 100
Method in brief: as §1

sedge, umbrella = experiment: Test B flood; type: in vivo, Cyperus difformis; settings: 250 g ai/ha, visual rating on 0 to 100 scale (0 no effect, 100 complete control), 13 to 15 days
Method in brief: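 Visual ratings on a 0–100 scale, where 0 means no effect and 100 means complete control, were assigned by comparison with controls 13 to 15 days after treatment. Compounds went into paddy water over 2-leaf plants flooded to 3 cm.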

corn = experiment: Test A preemergence; type: in vivo, Zea mays; settings: preemergence; for Corn plant response rating (0 to 100 scale): 125 g ai/ha, visual injury approx. 10 days after treatment; for Corn plant response rating: 500 g ai/ha, visual injury after approx. 10 days, 0 to 100 scale (0 no effect, 100 complete control)
Method in brief: (§2)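 Growth medium: loam soil blended with sand. Preemergence treatment used a directed soil spray right after planting; postemergence treatment targeted seedlings at one to two leaves (2–10 cm height). Response was judged by eye relative to untreated plants about 10 days later on a 0–100 control scale.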

ryegrass, Italian [2] = experiment: Test C postemergence; type: in vivo, Lolium multiflorum; settings: postemergence
Method in brief: as §1

pigweed [3] = experiment: Test A postemergence; type: in vivo, Amaranthus retroflexus
Method in brief: as §2

ryegrass, Italian [4] = experiment: Test C preemergence; type: in vivo, Lolium multiflorum; settings: preemergence; for Plant response rating, Ryegrass, Italian: 125 g ai/ha, scale 0 to 100, 0 = no effect, 100 = complete control
Method in brief: as §1

lambsquarters = experiment: Test C postemergence; type: in vivo, Chenopodium album; settings: for Plant response rating (scale of 0 to 100 where 0 is no effect and 100 is complete control), Lambsquarters: Postemergence, 31 g ai/ha, visually evaluated after 13 to 15 days; for Lambsquarters plant response rating / Plant response rating, Lambsquarters: postemergence; for Lambsquarters plant response rating: 62 g ai/ha, scale 0 to 100
Method in brief: as §1

morningglory = experiment: Test A preemergence; type: in vivo, Ipomoea spp.; settings: preemergence; for Morningglory plant response rating (0 to 100 scale): 125 g ai/ha, visual injury approx. 10 days after treatment; for Morningglory plant response rating: 500 g ai/ha, visual injury after approx. 10 days, 0 to 100 scale (0 no effect, 100 complete control)
Method in brief: as §2

ragweed = experiment: Test C preemergence; type: in vivo, Ambrosia elation; settings: preemergence; for Plant response rating, Ragweed: 125 g ai/ha, scale 0 to 100, 0 = no effect, 100 = complete control
Method in brief: as §1

crabgrass, large = experiment: Test A postemergence; type: in vivo, Digitaria sanguinalis
Method in brief: as §2

wheat = experiment: Test C preemergence; type: in vivo, Triticum aestivum; settings: preemergence; for Plant response rating, Wheat: 125 g ai/ha, scale 0 to 100, 0 = no effect, 100 = complete control
Method in brief: as §1

oat, wild = experiment: Test C postemergence; type: in vivo, Avena fatua; settings: for Plant response rating (scale of 0 to 100 where 0 is no effect and 100 is complete control), Oat, Wild: Postemergence, 31 g ai/ha, visually evaluated after 13 to 15 days; for Oat, Wild plant response rating / Plant response rating, Oat, Wild: postemergence; for Oat, Wild plant response rating: 62 g ai/ha, scale 0 to 100
Method in brief: as §1

[5] = 250 g ai/ha, scale 0 to 100 (0 no effect, 100 complete control)
[6] = 125 g ai/ha, scale 0 to 100, 0 no effect, 100 complete control
[7] = Postemergence, 500 g ai/ha, 0 to 100 scale (0 no effect, 100 complete control)
[8] = postemergence, 125 g ai/ha, about 10 days, visual rating on 0 to 100 scale (0 no effect, 100 complete control)
[9] = 31 g ai/ha, visual rating, scale 0 to 100 (0 no effect, 100 complete control), 13 to 15 days
[10] = 62 g ai/ha, scale 0 to 100 (0 no effect, 100 complete control), 13 to 15 days
[11] = 250 g ai/ha, scale 0 to 100, 0 is no effect, 100 is complete control
[12] = Postemergence, 125 g ai/ha, 0 to 100 scale, 0 no effect, 100 complete control

| SMILES | Plant response rating, Soybean (soybean) | Soybean plant response rating (soybean) | Pigweed plant response rating (pigweed [1]) | Plant response rating, Pigweed (pigweed [1]; [5]) | Plant response rating, Pigweed (pigweed [1]; [6]) | Plant response rating, Sedge, Umbrella (sedge, umbrella) | Corn plant response rating (0 to 100 scale) (corn) | Corn plant response rating (corn) | Plant response rating, Ryegrass, Italian (ryegrass, Italian [2]; [5]) | Plant response rating, Ryegrass, Italian (ryegrass, Italian [2]; [6]) | Pigweed plant response rating (pigweed [3]; [7]) | Ryegrass, Italian plant response rating (ryegrass, Italian [4]; [9]) | Ryegrass, Italian plant response rating (ryegrass, Italian [4]; [10]) | Plant response rating, Ryegrass, Italian (ryegrass, Italian [4]; 13 to 15 days) | Ryegrass, Italian plant response rating (ryegrass, Italian [4]; [11]) | Plant response rating (scale of 0 to 100 where 0 is no effect and 100 is complete control), Lambsquarters (lambsquarters) | Lambsquarters plant response rating (lambsquarters) | Plant response rating, Lambsquarters (lambsquarters; [5]) | Plant response rating, Lambsquarters (lambsquarters; [6]) | Morningglory plant response rating (0 to 100 scale) (morningglory) | also measured |
| --- | --- | --- | --- | --- | --- | --- | --- | --- | --- | --- | --- | --- | --- | --- | --- | --- | --- | --- | --- | --- | --- |
| CCOc1cc(C(=O)NOC(C)C)nn1Cc1ccnc(C(F)(F)F)c1 [Compound 153] | 40 | 35 | 25 | 80 | 25 | 95 | 90 | 100 | 5 | 5 | 100 | 5 | 50 | 90 | 90 | 65 | 55 | 85 | 75 | 100 | Pigweed plant response rating (pigweed [3]; [8]): 100; Morningglory plant response rating (morningglory): 100; Ragweed plant response rating (ragweed; [9]): 50; Ragweed plant response rating (ragweed; [10]): 95; Plant response rating, Ragweed (ragweed; 13 to 15 days): 98; Ragweed plant response rating (ragweed; [11]): 98; Crabgrass, Large plant response rating (crabgrass, large; [7]): 100; Crabgrass, Large plant response rating (crabgrass, large; [8]): 100; Wheat plant response rating (wheat; [9]): 15; Wheat plant response rating (wheat; [10]): 85; Plant response rating, Wheat (wheat; 13 to 15 days): 90; Wheat plant response rating (wheat; [11]): 90; Plant response rating (scale of 0 to 100 where 0 is no effect and 100 is complete control), Oat, Wild (oat, wild): 5; Oat, Wild plant response rating (oat, wild): 10; Plant response rating, Oat, Wild (oat, wild; [5]): 20; Plant response rating, Oat, Wild (oat, wild; [6]): 5 |
| CCNC(=O)c1cc(CC)n(Cc2cc(C(F)(F)F)nn2C)n1 [Compound 154] | 90 | 85 | 65 | 95 | 85 | 95 | 0 | 30 | 5 | 0 | 100 | 5 | 10 | 50 | 90 | 40 | 50 | 75 | 75 | 100 | Pigweed plant response rating (pigweed [3]; [8]): 100; Morningglory plant response rating (morningglory): 100; Ragweed plant response rating (ragweed; [9]): 25; Ragweed plant response rating (ragweed; [10]): 80; Plant response rating, Ragweed (ragweed; 13 to 15 days): 98; Ragweed plant response rating (ragweed; [11]): 98; Crabgrass, Large plant response rating (crabgrass, large; [7]): 100; Crabgrass, Large plant response rating (crabgrass, large; [8]): 100; Wheat plant response rating (wheat; [9]): 0; Wheat plant response rating (wheat; [10]): 5; Plant response rating, Wheat (wheat; 13 to 15 days): 50; Wheat plant response rating (wheat; [11]): 90; Plant response rating (scale of 0 to 100 where 0 is no effect and 100 is complete control), Oat, Wild (oat, wild): 5; Oat, Wild plant response rating (oat, wild): 5; Plant response rating, Oat, Wild (oat, wild; [5]): 25; Plant response rating, Oat, Wild (oat, wild; [6]): 20 |
| CCCNC(=O)c1cc(CCF)n(Cc2ccnc(C(F)(F)F)c2)n1 [Compound 177] | 95 | 90 | 40 | 85 | 75 | 95 | 80 | 90 | 5 | 5 | 100 | 5 | 40 | 85 | 90 | 65 | 50 | 85 | 75 | 100 | Pigweed plant response rating (pigweed [3]; [8]): 100; Morningglory plant response rating (morningglory): 100; Ragweed plant response rating (ragweed; [9]): 75; Ragweed plant response rating (ragweed; [10]): 85; Plant response rating, Ragweed (ragweed; 13 to 15 days): 98; Ragweed plant response rating (ragweed; [11]): 98; Crabgrass, Large plant response rating (crabgrass, large; [7]): 100; Crabgrass, Large plant response rating (crabgrass, large; [8]): 100; Wheat plant response rating (wheat; [9]): 10; Wheat plant response rating (wheat; [10]): 10; Plant response rating, Wheat (wheat; 13 to 15 days): 50; Wheat plant response rating (wheat; [11]): 90; Plant response rating (scale of 0 to 100 where 0 is no effect and 100 is complete control), Oat, Wild (oat, wild): 5; Oat, Wild plant response rating (oat, wild): 5; Plant response rating, Oat, Wild (oat, wild; [5]): 40; Plant response rating, Oat, Wild (oat, wild; [6]): 15 |
| CCCc1cc(C(=O)NC(C)C)nn1Cc1ccnc(C(F)(F)F)c1 [Compound 186] | 95 | 95 | 70 | 85 | 85 | 80 | 80 | 100 | 60 | 10 | 100 | 5 | 80 | 90 | 90 | 95 | 65 | 98 | 75 | 100 | Pigweed plant response rating (pigweed [3]; [12]): 60; Morningglory plant response rating (morningglory): 100; Ragweed plant response rating (ragweed; [9]): 75; Ragweed plant response rating (ragweed; [10]): 100; Plant response rating, Ragweed (ragweed; 13 to 15 days): 95; Ragweed plant response rating (ragweed; [11]): 98; Crabgrass, Large plant response rating (crabgrass, large; [7]): 90; Crabgrass, Large plant response rating (crabgrass, large; [8]): 90; Wheat plant response rating (wheat; [9]): 80; Wheat plant response rating (wheat; [10]): 90; Plant response rating, Wheat (wheat; 13 to 15 days): 90; Wheat plant response rating (wheat; [11]): 90; Plant response rating (scale of 0 to 100 where 0 is no effect and 100 is complete control), Oat, Wild (oat, wild): 10; Oat, Wild plant response rating (oat, wild): 35; Plant response rating, Oat, Wild (oat, wild; [5]): 80; Plant response rating, Oat, Wild (oat, wild; [6]): 35 |
| CCCNC(=O)c1cc(OCC)n(Cc2ccnc(C(F)(F)F)c2)n1 [Compound 187] | 98 | 95 | 50 | 75 | 60 | 90 | 40 | 90 | 30 | 5 | 90 | 50 | 80 | 90 | 90 | 60 | 75 | 90 | 75 | 100 | Pigweed plant response rating (pigweed [3]; [12]): 100; Morningglory plant response rating (morningglory): 100; Ragweed plant response rating (ragweed; [9]): 80; Ragweed plant response rating (ragweed; [10]): 100; Plant response rating, Ragweed (ragweed; 13 to 15 days): 98; Ragweed plant response rating (ragweed; [11]): 100; Crabgrass, Large plant response rating (crabgrass, large; [7]): 90; Crabgrass, Large plant response rating (crabgrass, large; [8]): 90; Wheat plant response rating (wheat; [9]): 20; Wheat plant response rating (wheat; [10]): 80; Plant response rating, Wheat (wheat; 13 to 15 days): 90; Wheat plant response rating (wheat; [11]): 90; Plant response rating (scale of 0 to 100 where 0 is no effect and 100 is complete control), Oat, Wild (oat, wild): 10; Oat, Wild plant response rating (oat, wild): 15; Plant response rating, Oat, Wild (oat, wild; [5]): 50; Plant response rating, Oat, Wild (oat, wild; [6]): 30 |
